Source: PMC5515969, “Effects of 31 FDA approved small-molecule kinase inhibitors on isolated rat liver mitochondria” (Archives of Toxicology, 2016)

How the values were obtained:
[1] = tested on: isolated rat liver mitochondria; assay: Mitochondrial oxygen consumption (glutamate/malate or succinate driven, state 4 and state 3); assay type: biochemical; settings: for Glutamate/malate driven respiration State 3 / Glutamate/malate driven respiration State 4 / Succinate-driven respiration State 3 / Succinate-driven respiration State 4: oxygen consumption, DMSO-treated = 1; for effect on state 4 respiration: highest tested concentrations; for lowest concentration significantly affecting mitochondrial oxygen consumption: tested at 1 to 100-fold Cmax
Summary of the method: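 Rat liver mitochondria (1 mg/ml protein) exposed 5 min to kinase inhibitors in 0.1% DMSO, then O2 consumption measured by Clark-type electrode with glutamate/malate or succinate (state 4), ADP added after 3 min (state 3). Rates normalized to 0.1% DMSO controls set to 1.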

RCC I = RCC I activity in submitochondrial particles; assay type: biochemical, rat; settings: 15 min, DMSO-treated = 100
Summary of the method: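 Abs 340 nm (I/V) or 600 nm (II), 1-min reads × 6 min; 550 nm (III, IV), 10-s reads × 2 min. RCC I = rotenone-free minus rotenone rate. DMSO control = 1.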

RCC III = RCC III activity in submitochondrial particles; assay type: biochemical, rat; settings: 15 min, DMSO-treated = 100
Summary of the method: (§1)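 Kinase inhibitors were preincubated 15 min with submitochondrial particles (1 mg/ml) before complex activities were measured. RCC I was the rotenone-sensitive portion (activity without minus with rotenone). RCC I/V was read at 340 nm and RCC II at 600 nm every 1 min for 6 min. RCC III and IV were read at 550 nm every 10 s for 2 min. Activities are normalized to DMSO controls set as 1.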

RCC IV = RCC IV activity in submitochondrial particles; assay type: biochemical, rat; settings: 15 min, DMSO-treated = 100
Summary of the method: as §1

RCC V = RCC V activity in submitochondrial particles; assay type: biochemical, rat; settings: 15 min, DMSO-treated = 100
Summary of the method: as §1

[2] = tested on: isolated rat liver mitochondria; assay: Mitochondrial inner membrane potential (MMP), Rhodamine 123; assay type: biochemical; settings: for effect on MMP: up to 100-fold Cmax or highest testable concentration
Description: Fig. 3 KI effects on mitochondrial inner membrane potential (MMP). […] In a, c, data are means and standard derivations from three separate experiments. *p < 0.05 as compared to DMSO-treated samples at the end of experiments. In b, data are means of two independent experiments

[3] = tested on: isolated rat liver mitochondria; assay: Mitochondrial swelling (absorbance at 535 nm); assay type: biochemical; settings: for effect on mitochondrial swelling: up to 100-fold Cmax or highest testable concentration, 25 µM calcium chloride
RCC I–V = assay: Activities of RCC I–V, overall statements; assay type: biochemical, rat; settings: submitochondrial particles; for RCCs inhibited: up to 100-fold Cmax or highest testable concentration
Experimental: KIs were incubated with submitochondrial particles (1 mg/ml) for 15 min and then RCC I–V activities measured. […] The activities of DMSO-treated samples (controls) were set as 1. […] The difference between the activity from rotenone-containing buffer and rotenone-absent buffer was considered as RCC I activity. […] For measuring RCC I/V and II activity, the changes in absorbance at 340 and 600 nm, respectively, were determined every 1 min for 6 min. For measuring RCC III and RCC IV, the changes in absorbance at 550 nm were measured every 10 s for 2 min.

[4] = tested on: isolated rat liver mitochondria; assay: Mitochondrial toxicity, any endpoint, intact mitochondria and submitochondrial particles; assay type: biochemical; settings: any endpoint
Experimental: Rats were anesthetized by an intraperitoneal injection of Nembutal and the liver perfused with PBS to remove the blood. The liver was then cut into small pieces and homogenized using a Dounce type homogenizer in the ice-cold isolation buffer (IB) containing 200 mM sucrose, 10 mM Tris-MOPS, 1 mM EGTA (pH 7.4). The sample was then centrifuged at 600g for 10 min. The supernatant was further centrifuged at 7500g for 10 min, and the pellets was washed once with the IB and centrifuged again at 7500g for 10 min to collect mitochondria. […] Before drug treatment, the protein concentration was adjusted to 1 mg/ml using appropriate buffer. […] Briefly, mitochondrial and cytosolic fractions from four different preparations using four rats were diluted using the Laemmli protein loading buffer and subject to SDS-PAGE with 4–20% gradient gels. The proteins were blotted to PVDF membranes and detected using antibodies against GAPDH, ATP5A, UQCRC2, SDHB, and NDUFB8.
The aliquoted stock solutions were kept for less than one month and each tube was used only once. The KIs were added to the mitochondria at 1:1000 dilutions. […] The Cmax data were from clinical trials which used FDA recommend dosages, route of administration, and duration. […] The final concentration of DMSO for drug treatment was always 0.1%, and control treatments were 0.1% DMSO.

[5] = human therapeutic Cmax at FDA recommended dosages; ref product labeling and drug approval packages at the official FDA website; cited from earlier work
[6] = ref FDA product labeling, cited from earlier work
[7] = tested on: isolated rat liver mitochondria; assay: Mitochondrial ROS production (CM-H2DCFDA); settings: highest tested concentrations

With `CNC(=O)c1cc(Oc2ccc(NC(=O)Nc3ccc(Cl)c(C(F)(F)F)c3)cc2)ccn1` [Sorafenib] as the molecule, how does the “Glutamate/malate driven respiration State 3” value ([1]; 1-fold Cmax) read?
The value was 1.15 ± 0.09.

And the “Glutamate/malate driven respiration State 4” value ([1]; 1-fold Cmax)?
Its value is 2.55 ± 0.27.

And the “Succinate-driven respiration State 3” value ([1]; 1-fold Cmax)?
Its value is 1.00 ± 0.10.

What about the “Succinate-driven respiration State 4” value ([1]; 1-fold Cmax) of the same molecule?
Its value is 1.50 ± 0.21.

And the “Glutamate/malate driven respiration State 3” value ([1]; 2.5-fold Cmax)?
The value was 1.57 ± 0.06.

What about the “Glutamate/malate driven respiration State 4” value ([1]; 2.5-fold Cmax) of the same molecule?
The value was 4.92 ± 0.09.

What about the “Succinate-driven respiration State 3” value ([1]; 2.5-fold Cmax) of the same molecule?
The value was 0.62 ± 0.05.

What about the “Succinate-driven respiration State 4” value ([1]; 2.5-fold Cmax) of the same molecule?
Its value is 1.43 ± 0.06.

And the “Glutamate/malate driven respiration State 4” value ([1]; 5-fold Cmax)?
Its value is 3.69 ± 0.12.

What about the “Succinate-driven respiration State 3” value ([1]; 5-fold Cmax) of the same molecule?
The value was 0.40 ± 0.01.

And the “Succinate-driven respiration State 4” value ([1]; 5-fold Cmax)?
Its value is 1.03 ± 0.08.

And the “Glutamate/malate driven respiration State 3” value ([1]; 10-fold Cmax)?
The value was 0.93 ± 0.34.

What about the “Glutamate/malate driven respiration State 4” value ([1]; 10-fold Cmax) of the same molecule?
The value was 5.00 ± 1.92.

And the “Succinate-driven respiration State 3” value ([1]; 10-fold Cmax)?
Its value is 1.03 ± 0.19.

What about the “Succinate-driven respiration State 4” value ([1]; 10-fold Cmax) of the same molecule?
The value was 3.34 ± 0.45.

What about the “effect on state 4 respiration” value [1] of the same molecule?
The value was “significant increases”.

And the “lowest concentration significantly affecting mitochondrial oxygen consumption” value [1]?
Its value is “equal to Cmax”.

And the “RCC activity I” value (RCC I; 5-fold Cmax)?
Its value is 87.23 ± 10.61 % of control.

What about the “RCC activity I” value (RCC I; 10-fold Cmax) of the same molecule?
The value was 85.45 ± 11.93 % of control.

What about the “RCC activity III” value (RCC III; 5-fold Cmax) of the same molecule?
Its value is 97.60 ± 5.50 % of control.

What about the “RCC activity III” value (RCC III; 10-fold Cmax) of the same molecule?
Its value is 94.31 ± 7.47 % of control.

And the “RCC activity IV” value (RCC IV; 5-fold Cmax)?
Its value is 101.55 ± 3.61 % of control.

What about the “RCC activity IV” value (RCC IV; 10-fold Cmax) of the same molecule?
Its value is 107.65 ± 10.77 % of control.

And the “RCC activity V” value (RCC V; 10-fold Cmax)?
The value was 65.55 ± 6.34 % of control.

And the “lowest concentration decreasing MMP” value [2]?
Its value is “onefold”.

And the “effect on MMP” value [2]?
The value was “decrease in MMP”.

What about the “lowest concentration causing mitochondrial swelling” value [3] of the same molecule?
The value was 2.5 fold Cmax.

And the “effect on mitochondrial swelling” value [3]?
Its value is “significant mitochondrial swelling”.

What about the “lowest concentration inhibiting RCCs” value (RCC I–V) of the same molecule?
The value was “fivefold”.

What about the RCCs inhibited (RCC I–V) of the same molecule?
The RCCs inhibited was “RCC V”.

And the “lowest concentration causing significant mitochondrial toxicity” value [4]?
The value was “equal to the Cmax”.

What about the Cmax [5] of the same molecule?
The Cmax was 4.3 µM.

And the “labeling for DILI” value ([6]; W&P warnings and precautions, BBW black box warnings)?
The value was “W&P: fatal DILI”.

And the “DILI potential (based on labeling)” value [6]?
The value was 1.

What about the “effect on ROS production” value [7] of the same molecule?
Its value is “neither of them affected ROS production”.

With `COc1cc2nccc(Oc3ccc(NC(=O)C4(C(=O)Nc5ccc(F)cc5)CC4)cc3)c2cc1OC` [Cabozantinib] as the molecule, how does the “Glutamate/malate driven respiration State 4” value ([1]; 10-fold Cmax) read?
The value was 1.46 ± 0.08.

And the “Succinate-driven respiration State 3” value ([1]; 10-fold Cmax)?
The value was 1.03 ± 0.01.

What about the “Succinate-driven respiration State 4” value ([1]; 10-fold Cmax) of the same molecule?
The value was 1.23 ± 0.11.

What about the “Glutamate/malate driven respiration State 3” value ([1]; 20-fold Cmax) of the same molecule?
Its value is 0.92 ± 0.05.

What about the “Glutamate/malate driven respiration State 4” value ([1]; 20-fold Cmax) of the same molecule?
Its value is 1.30 ± 0.15.

And the “Succinate-driven respiration State 3” value ([1]; 20-fold Cmax)?
Its value is 0.94 ± 0.06.

And the “Succinate-driven respiration State 4” value ([1]; 20-fold Cmax)?
The value was 1.24 ± 0.05.

What about the “Glutamate/malate driven respiration State 4” value ([1]; 30-fold Cmax) of the same molecule?
The value was 1.55 ± 0.06.

And the “Succinate-driven respiration State 3” value ([1]; 30-fold Cmax)?
The value was 0.95 ± 0.05.

What about the “Succinate-driven respiration State 4” value ([1]; 30-fold Cmax) of the same molecule?
Its value is 1.35 ± 0.18.

And the “effect on state 4 respiration” value [1]?
Its value is “significant increases”.

And the “lowest concentration significantly affecting mitochondrial oxygen consumption” value [1]?
The value was “tenfold”.

What about the “RCC activity I” value (RCC I; 30-fold Cmax) of the same molecule?
The value was 80.97 ± 2.99 % of control.

And the “RCC activity III” value (RCC III; 30-fold Cmax)?
Its value is 90.73 ± 14.60 % of control.

What about the “RCC activity IV” value (RCC IV; 30-fold Cmax) of the same molecule?
Its value is 113.10 ± 9.48 % of control.

And the “RCC activity V” value (RCC V; 30-fold Cmax)?
Its value is 91.99 ± 8.51 % of control.

And the “lowest concentration decreasing MMP” value [2]?
The value was “tenfold”.

What about the “effect on MMP” value [2] of the same molecule?
The value was “decrease in MMP”.

What about the “lowest concentration causing mitochondrial swelling” value [3] of the same molecule?
Its value is 20 fold Cmax.

And the “effect on mitochondrial swelling” value [3]?
The value was “significant mitochondrial swelling”.

And the RCCs inhibited (RCC I–V)?
Its RCCs inhibited is “both RCC I and RCC II”.

And the “lowest concentration causing significant mitochondrial toxicity” value [4]?
The value was 10 fold Cmax.

And the Cmax [5]?
The Cmax was 2.58 µM.

And the “DILI potential (based on labeling)” value [6]?
The value was 0.
